The source of these data is ChEMBL document CHEMBL1141550, “N-Alkylated galanthamine derivatives: Potent acetylcholinesterase inhibitors from Leucojum aestivum” (Bioorg Med Chem Lett, 2008).

For the test, the target named is Acetylcholinesterase (Electrophorus electricus, UniProt O42275). In words: Inhibition of electric eel acetylcholinesterase.

SMILES strings stand for the structures.

Sequence of Acetylcholinesterase (O42275 whole entry): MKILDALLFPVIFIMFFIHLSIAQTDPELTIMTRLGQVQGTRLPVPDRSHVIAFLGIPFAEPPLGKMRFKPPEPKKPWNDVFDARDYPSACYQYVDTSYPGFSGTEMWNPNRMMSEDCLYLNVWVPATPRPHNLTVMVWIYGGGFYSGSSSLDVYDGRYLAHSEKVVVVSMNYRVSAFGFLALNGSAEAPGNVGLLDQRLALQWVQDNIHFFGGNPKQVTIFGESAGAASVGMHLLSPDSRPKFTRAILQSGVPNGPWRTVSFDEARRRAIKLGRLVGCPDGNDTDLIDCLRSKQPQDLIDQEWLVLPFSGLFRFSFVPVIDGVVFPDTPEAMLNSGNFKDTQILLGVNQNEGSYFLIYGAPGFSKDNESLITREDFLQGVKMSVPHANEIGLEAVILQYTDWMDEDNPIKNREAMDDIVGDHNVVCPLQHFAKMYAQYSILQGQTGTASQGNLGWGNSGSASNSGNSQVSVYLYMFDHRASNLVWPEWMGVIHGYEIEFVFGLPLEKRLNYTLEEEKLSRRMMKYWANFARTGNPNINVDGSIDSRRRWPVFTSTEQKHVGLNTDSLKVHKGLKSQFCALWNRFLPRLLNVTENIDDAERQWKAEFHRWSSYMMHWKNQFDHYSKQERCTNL

For the compound `C=CCN1CC[C@@]23C=C[C@H](O)C[C@@H]2Oc2c(OC)ccc(c23)C1` [N-ALLYLNORGALANTHAMINE], the IC50 – broadly, the concentration at which inhibition is half-maximal – is 180 nM.

In turn, `C=C(C)CN1CC[C@@]23C=C[C@H](O)C[C@@H]2Oc2c(OC)ccc(c23)C1` gave an IC50 of 160 nM.
